Measured values from ChEMBL document CHEMBL1201862, “PubChem BioAssay data set” (2004).
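The compound was tested at five concentrations on cells cultured in 96-well plates, with a 48-hour exposure period. The concentration for 50% growth inhibition is given as GI50.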 Active and inactive are the calls of the source. Cut-off read from the data, not from the text of the source: active = GI50 up to about 1.1 µM and inactive = higher.

What was measured:
Experiment in all cases: NCI-60 cell line screen, 48 h
[1] = tested on: MCF7
[2] = tested on: SK-OV-3
[3] = tested on: OVCAR-4
[4] = tested on: NCI-H522
[5] = tested on: RXF 393
[6] = tested on: SN12C
[7] = tested on: U-251
[8] = tested on: UACC-62
[9] = tested on: RPMI-8226
[10] = tested on: PC-3
[11] = tested on: SF-268
[12] = tested on: EKVX
[13] = tested on: MDA-MB-435
[14] = tested on: A498
[15] = tested on: KM12
[16] = tested on: MDA-N
[17] = tested on: SNB-19
[18] = tested on: HOP-92
[19] = tested on: HL-60
[20] = tested on: SR

Measured: GI50

Nc1nc(N)c(NC(=O)CCCO)c(=O)[nH]1
inactive: [1] > 100 µM | [2] > 100 µM | [3] > 100 µM | [4] 67.1 µM | [5] > 100 µM | [6] > 100 µM | [7] > 100 µM | [8] > 100 µM | [9] > 100 µM | [10] > 100 µM | [11] > 100 µM | [12] > 100 µM | [13] > 100 µM | [14] > 100 µM | [15] > 100 µM | [16] > 100 µM | [17] > 100 µM | [18] > 100 µM

Oc1ccc(Br)cc1/C=N/c1cccc(C(F)(F)F)c1
inactive: [1] 14.5 µM | [2] 45.7 µM | [3] 34.8 µM | [4] > 100 µM | [5] > 100 µM | [6] 30.5 µM | [7] 6.89 µM | [8] 25.1 µM | [9] 28.1 µM | [10] 7.16 µM | [11] 8.69 µM | [19] 3.2 µM | [12] 27.1 µM | [13] 30.5 µM | [14] > 100 µM | [15] 36.6 µM | [16] 32.9 µM | [17] 39.4 µM | [18] 35.2 µM

COC(=O)c1cc(NC(=O)c2cc(NC(=O)c3cc([N+](=O)[O-])cn3C)cn2C)cn1C
inactive: [1] > 100 µM | [2] 49.4 µM | [3] 40 µM | [5] > 100 µM | [6] > 100 µM | [7] 36.8 µM | [8] 55.6 µM | [9] 29.4 µM | [10] 94.2 µM | [11] > 100 µM | [19] 86.5 µM | [12] 34.1 µM | [13] 98.6 µM | [14] > 100 µM | [15] 64.1 µM | [16] > 100 µM | [17] 59.6 µM | [18] 14.3 µM

Cc1cc(S(=O)(=O)Nc2nc(N)nc(N3N=CCC3C)n2)c(SCC(=O)O)cc1Cl (centres undefined)
inactive: [1] > 10 µM | [2] > 10 µM | [3] > 10 µM | [4] > 10 µM | [5] > 10 µM | [6] > 10 µM | [7] > 10 µM | [8] > 10 µM | [9] > 10 µM | [10] > 10 µM | [11] > 10 µM | [19] > 10 µM | [12] > 10 µM | [13] > 10 µM | [14] > 10 µM | [15] > 10 µM | [16] > 10 µM | [17] > 10 µM

C=CC[C@H](N=C(SC)SC)C(=O)N1C(=O)N(C)[C@@H](C)[C@H]1c1ccccc1
inactive: [1] 34.8 µM | [2] 75 µM | [3] 29.9 µM | [4] 14.9 µM | [5] 33.8 µM | [6] 40.7 µM | [7] 40.8 µM | [8] 35.1 µM | [10] 33.7 µM | [11] 26.5 µM | [19] 34 µM | [12] 31.3 µM | [13] 33.8 µM | [14] 56.8 µM | [15] 36.2 µM | [16] 33.8 µM | [17] 58.7 µM | [18] 23.3 µM

Nc1ncnc2c1cnn2Cc1cn(COCC(O)CO)nn1 (centres undefined)
inactive: [1] > 100 µM | [2] > 100 µM | [3] > 100 µM | [4] 16.1 µM | [6] > 100 µM | [7] > 100 µM | [8] > 100 µM | [10] > 100 µM | [11] 18.1 µM | [19] > 100 µM | [12] > 100 µM | [13] > 100 µM | [14] > 100 µM | [15] > 100 µM | [16] > 100 µM | [17] > 100 µM | [18] > 100 µM

COC(=O)C1=C(C)C(=O)[C@]23C(CCCC[C@H]12)C(=O)[C@H](C(=O)OC)C3C (some centres undefined)
inactive: [1] > 100 µM | [2] > 100 µM | [3] > 100 µM | [4] > 100 µM | [6] > 100 µM | [7] > 100 µM | [8] > 100 µM | [10] > 100 µM | [11] > 100 µM | [19] > 100 µM | [12] > 100 µM | [13] > 100 µM | [15] > 100 µM | [16] > 100 µM | [17] > 100 µM | [18] > 100 µM | [20] 50.9 µM

Nc1nc(O)nc2c1ncn2C1OC(CO)C(O)C1O (centres undefined)
inactive: [1] 29 µM | [2] 40.2 µM | [3] 37 µM | [4] > 100 µM | [5] 72.3 µM | [6] 33.1 µM | [7] > 100 µM | [8] > 100 µM | [9] 61.7 µM | [10] 22.6 µM | [11] > 100 µM | [19] 22 µM | [12] > 100 µM | [13] 57.5 µM | [14] > 100 µM | [15] > 100 µM | [16] 46.5 µM | [17] > 100 µM | [18] 57.1 µM
